From US11214594B2, “Antimicrobial peptide having synergistic antibacterial effect with antibiotics on multidrug resistant bacteria, and use thereof” (priority 2016, dated 2022)
Where two headings read alike, the source gives them in different places. Where a SMILES comes first, the peptide text is derived from it. [ ]: non-standard residue; d: D form.

What was measured:
E. coli [1] = assay: microbe, parasite or virus in culture; format: cell-based, Escherichia coli; conditions: 16 h
Procedure, shortened: (§1)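 Peptides were serially diluted twofold in Mueller-Hinton medium and combined 1:1 with bacterial suspensions prepared at 2×10^6 CFU. Readout was the minimal inhibitory concentration, i.e. the lowest concentration with no growth.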

MDREC 1229 [2] = assay: microbe, parasite or virus in culture; format: cell-based, Escherichia coli
Procedure, shortened: as §1

P. aeruginosa = assay: microbe, parasite or virus in culture; format: cell-based, Pseudomonas aeruginosa
Procedure, shortened: as §1

A. baumannii [3] = assay: microbe, parasite or virus in culture; format: cell-based, Acinetobacter baumannii
Procedure, shortened: as §1

MDRAB 12035 [4] = assay: microbe, parasite or virus in culture; format: cell-based, Acinetobacter baumannii
Procedure, shortened: as §1

MDRST 8009 = format: cell-based, Salmonella typhimurium; conditions: agent alone
Procedure, shortened: as §1

B. subtilis = assay: microbe, parasite or virus in culture; format: cell-based, Bacillus subtilis
Procedure, shortened: as §1

S. epidermidis = assay: microbe, parasite or virus in culture; format: cell-based, Staphylococcus epidermidis
Procedure, shortened: as §1

S. aureus = assay: microbe, parasite or virus in culture; format: cell-based, Staphylococcus aureus
Procedure, shortened: as §1

E. coli [5] = assay: MIC of antibiotic during combined treatment with antimicrobial peptide; format: cell-based, Escherichia coli; conditions: for Antibiotic MIC, Erythromycin / Antibiotic MIC, Linezolid / Antibiotic MIC, Vancomycin: E. coli
Procedure, shortened: (§2)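 MIC values for mixed peptide plus antibiotic solutions were measured in MH medium.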

A. baumannii [6] = assay: as above; format: cell-based, Acinetobacter baumannii; conditions: A. baumannii
Procedure, shortened: as §2

E. coli [7] = format: cell-based, Escherichia coli; conditions: E. coli
Procedure, shortened: (§3)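 Antibiotic MIC came from antibiotic dilutions added to bacteria (2×10^6 CFU/ml, MH medium) already combined with peptide serially diluted 2:1 from its own MIC. Swapping the roles of the two agents gave the peptide MIC.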

MDREC 1229 [8] = format: cell-based, Escherichia coli
Procedure, shortened: as §3

A. baumannii [9] = assay: MIC of antimicrobial peptide during combined treatment with antibiotic; format: cell-based, Acinetobacter baumannii
Procedure, shortened: as §3

MDRAB 12035 [10] = assay: as above; format: cell-based, Acinetobacter baumannii
Procedure, shortened: as §3

[11] = combined with peptide at 1 μg/ml
[12] = combined with peptide at 2 μg/ml
[13] = combined with peptide at 4 μg/ml
[14] = combined with peptide at 6 μg/ml
[15] = combined with peptide at 8 μg/ml
[16] = combined with peptide at 16 μg/ml
[17] = combined with peptide at 32 μg/ml
[18] = combined with peptide at 64 μg/ml
[19] = linezolid 64 μg/ml (Conc./MIC 1/8)
[20] = linezolid 512 μg/ml (Conc./MIC 1)
[21] = vancomycin 512 μg/ml (Conc./MIC 1/2)
[22] = vancomycin 1024 μg/ml (Conc./MIC 1)
[23] = erythromycin 4 μg/ml (Conc./MIC 1/8)
[24] = erythromycin 8 μg/ml (Conc./MIC 1/4)
[25] = erythromycin 16 μg/ml (Conc./MIC 1/2)
[26] = erythromycin 32 μg/ml (Conc./MIC 1)

CC[C@H](C)[C@H](NC(=O)[C@H](CCCCN)NC(=O)[C@H](Cc1c[nH]c2ccccc12)NC(=O)[C@@H](N)CCCNC(=N)N)C(=O)N[C@@H](Cc1ccccc1)C(=O)N[C@@H](CCCCN)C(=O)N[C@@H](CCCCN)C(=O)N[C@H](C(=O)N[C@H](CCCCN)C(=O)N[C@@H](CCCCN)C(=O)N[C@@H](CC(C)C)C(=O)N[C@@H](CC(C)C)C(=O)N[C@@H](Cc1c[nH]cn1)C(=O)N[C@@H](CCCCN)C(=O)N[C@@H](C)C(=O)N[C@@H](CCCCN)C(=O)N[C@@H](CCCCN)C(=O)N[C@@H](Cc1c[nH]c2ccccc12)C(N)=O)[C@@H](C)CC [PapMA-18, RWK IFK KIk KLL HKA KKW-NH2] (H-RWKIFKKI[dK]KLLHKAKKW-NH2; N-terminus assumed)
higher level than the PapMA-1 peptide: Synergistic effect of antibacterial activity with existing antibiotics compared with PapMA-1 (E. coli [5]; E. coli and MDREC1229)
32 µg/mL: Minimal inhibitory concentration MIC (P. aeruginosa) | Minimal inhibitory concentration MIC (A. baumannii [3]) | Peptide MIC, peptide alone (A. baumannii [3]) | Minimal inhibitory concentration MIC (MDRAB 12035 [4]) | Peptide MIC, peptide alone (MDRAB 12035 [4]) | Antibiotic MIC, Erythromycin (E. coli [5]; erythromycin combined with peptide at 2 μg/ml) | Antibiotic MIC, Vancomycin (E. coli [5]; vancomycin combined with peptide at 6 μg/ml) | Antibiotic MIC, Erythromycin (A. baumannii [6]; [11]) | Antibiotic MIC, Erythromycin (A. baumannii [6]; [12]) | Antibiotic MIC, Linezolid (A. baumannii [6]; [14]) | Antibiotic MIC, Vancomycin (A. baumannii [6]; [14])
>128 µg/mL: Minimal inhibitory concentration MIC (B. subtilis) | Minimal inhibitory concentration MIC (S. epidermidis) | Minimal inhibitory concentration MIC (S. aureus) | Antibiotic MIC, Linezolid (E. coli [5]; linezolid combined with peptide at 1 μg/ml) | Antibiotic MIC, Linezolid (E. coli [5]; linezolid combined with peptide at 2 μg/ml) | Antibiotic MIC, Vancomycin (E. coli [5]; vancomycin combined with peptide at 1 μg/ml) | Antibiotic MIC, Vancomycin (E. coli [5]; vancomycin combined with peptide at 2 μg/ml) | Antibiotic MIC, Vancomycin (E. coli [5]; vancomycin combined with peptide at 4 μg/ml) | Antibiotic MIC, Linezolid (A. baumannii [6]; [11]) | Antibiotic MIC, Vancomycin (A. baumannii [6]; [11]) | Antibiotic MIC, Vancomycin (A. baumannii [6]; [12])
128 µg/mL: Antibiotic MIC, Erythromycin (E. coli [5]; erythromycin combined with peptide at 1 μg/ml) | Antibiotic MIC, Linezolid (A. baumannii [6]; [12]) | Antibiotic MIC, Vancomycin (A. baumannii [6]; [13])
4 µg/mL: Antibiotic MIC, Linezolid (E. coli [5]; linezolid combined with peptide at 32 μg/ml) | Antibiotic MIC, Vancomycin (E. coli [5]; vancomycin combined with peptide at 32 μg/ml) | Antibiotic MIC, Linezolid (A. baumannii [6]; [16]) | Peptide MIC during treatment with antibiotic (MDREC 1229 [8]; [19]) | Peptide MIC during treatment with antibiotic (MDREC 1229 [8]; linezolid […] (Conc./MIC 1/4)) | Peptide MIC during treatment with antibiotic (MDREC 1229 [8]; vancomycin […] (Conc./MIC 1/4)) | Peptide MIC during treatment with antibiotic (A. baumannii [9]; [23]) | Peptide MIC during treatment with antibiotic (A. baumannii [9]; [24]) | Peptide MIC during treatment with antibiotic (A. baumannii [9]; [25]) | Peptide MIC during treatment with antibiotic (A. baumannii [9]; linezolid 64 μg/ml (Conc./MIC 1/4)) | Peptide MIC during treatment with antibiotic (A. baumannii [9]; vancomycin […] (Conc./MIC 1/8)) | Peptide MIC during treatment with erythromycin (MDRAB 12035 [10]; [23]) | Peptide MIC during treatment with erythromycin (MDRAB 12035 [10]; [24]) | Peptide MIC during treatment with erythromycin (MDRAB 12035 [10]; [25]) | Peptide MIC during treatment with linezolid (MDRAB 12035 [10]; [19]) | Peptide MIC during treatment with linezolid (MDRAB 12035 [10]; linezolid […] (Conc./MIC 1/4)) | Peptide MIC during treatment with vancomycin (MDRAB 12035 [10]; vancomycin […] (Conc./MIC 1/4)) | Peptide MIC during treatment with vancomycin (MDRAB 12035 [10]; vancomycin […] (Conc./MIC 1/8))
8 µg/mL: Antibiotic MIC, Erythromycin (E. coli [5]; erythromycin combined with peptide at 4 μg/ml) | Antibiotic MIC, Linezolid (E. coli [5]; linezolid combined with peptide at 8 μg/ml) | Antibiotic MIC, Linezolid (E. coli [5]; linezolid combined with peptide at 16 μg/ml) | Antibiotic MIC, Vancomycin (E. coli [5]; vancomycin combined with peptide at 16 μg/ml) | Peptide MIC during treatment with antibiotic (MDREC 1229 [8]; vancomycin […] (Conc./MIC 1/8)) | Peptide MIC during treatment with antibiotic (A. baumannii [9]; linezolid 32 μg/ml (Conc./MIC 1/8))
2 µg/mL: Antibiotic MIC, Erythromycin (A. baumannii [6]; [14]) | Peptide MIC during treatment with antibiotic (MDREC 1229 [8]; erythromycin 32 μg/ml (Conc./MIC 1/8)) | Peptide MIC during treatment with antibiotic (MDREC 1229 [8]; erythromycin 64 μg/ml (Conc./MIC 1/4)) | Peptide MIC during treatment with antibiotic (MDREC 1229 [8]; erythromycin […] (Conc./MIC 1/2)) | Peptide MIC during treatment with antibiotic (MDREC 1229 [8]; [21]) | Peptide MIC during treatment with antibiotic (A. baumannii [9]; linezolid […] (Conc./MIC 1/2)) | Peptide MIC during treatment with vancomycin (MDRAB 12035 [10]; [21])
0.25 µg/mL: Antibiotic MIC, Erythromycin (E. coli [5]; erythromycin combined with peptide at 16 μg/ml) | Peptide MIC during treatment with antibiotic (A. baumannii [9]; [21])
0 µg/mL: Antibiotic MIC, Erythromycin (E. coli [5]; erythromycin combined with peptide at 64 μg/ml) | Antibiotic MIC, Linezolid (E. coli [5]; linezolid combined with peptide at 64 μg/ml) | Antibiotic MIC, Vancomycin (E. coli [5]; vancomycin combined with peptide at 64 μg/ml) | Antibiotic MIC, Erythromycin (A. baumannii [6]; [17]) | Antibiotic MIC, Linezolid (A. baumannii [6]; [17]) | Antibiotic MIC, Vancomycin (A. baumannii [6]; [17]) | Antibiotic MIC, Erythromycin (A. baumannii [6]; [18]) | Antibiotic MIC, Linezolid (A. baumannii [6]; [18]) | Antibiotic MIC, Vancomycin (A. baumannii [6]; [18]) | Peptide MIC (E. coli [7]; with Erythromycin […] (Conc./MIC 1)) | Peptide MIC (E. coli [7]; with Linezolid […] (Conc./MIC 1)) | Peptide MIC (E. coli [7]; with Vancomycin 1024 μg/ml (Conc./MIC 1)) | Peptide MIC during treatment with antibiotic (MDREC 1229 [8]; erythromycin […] (Conc./MIC 1)) | Peptide MIC during treatment with antibiotic (MDREC 1229 [8]; [20]) | Peptide MIC during treatment with antibiotic (A. baumannii [9]; [26]) | Peptide MIC during treatment with antibiotic (A. baumannii [9]; linezolid […] (Conc./MIC 1)) | Peptide MIC during treatment with antibiotic (A. baumannii [9]; [22]) | Peptide MIC during treatment with erythromycin (MDRAB 12035 [10]; [26]) | Peptide MIC during treatment with linezolid (MDRAB 12035 [10]; [20])
16 µg/mL: Antibiotic MIC, Linezolid (E. coli [5]; linezolid combined with peptide at 6 μg/ml) | Antibiotic MIC, Vancomycin (E. coli [5]; vancomycin combined with peptide at 8 μg/ml) | Antibiotic MIC, Erythromycin (A. baumannii [6]; [13]) | Antibiotic MIC, Linezolid (A. baumannii [6]; [15]) | Antibiotic MIC, Vancomycin (A. baumannii [6]; [15]) | Antibiotic MIC, Vancomycin (A. baumannii [6]; [16])
0.5 µg/mL: Antibiotic MIC, Erythromycin (A. baumannii [6]; [16]) | Peptide MIC during treatment with antibiotic (A. baumannii [9]; vancomycin […] (Conc./MIC 1/4))
1 µg/mL: Antibiotic MIC, Erythromycin (E. coli [5]; erythromycin combined with peptide at 6 μg/ml) | Antibiotic MIC, Erythromycin (E. coli [5]; erythromycin combined with peptide at 8 μg/ml) | Antibiotic MIC, Erythromycin (A. baumannii [6]; [15]) | Peptide MIC during treatment with antibiotic (MDREC 1229 [8]; linezolid […] (Conc./MIC 1/2)) | Peptide MIC during treatment with antibiotic (MDREC 1229 [8]; [22]) | Peptide MIC during treatment with linezolid (MDRAB 12035 [10]; linezolid […] (Conc./MIC 1/2)) | Peptide MIC during treatment with vancomycin (MDRAB 12035 [10]; [22])
64 µg/mL: Minimal inhibitory concentration MIC (E. coli [1]) | Minimal inhibitory concentration MIC (MDREC 1229 [2]) | Peptide MIC, peptide alone (MDREC 1229 [2]) | Minimal inhibitory concentration MIC (MDRST 8009) | Antibiotic MIC, Linezolid (E. coli [5]; linezolid combined with peptide at 4 μg/ml) | Antibiotic MIC, Linezolid (A. baumannii [6]; [13])
0.125 µg/mL: Antibiotic MIC, Erythromycin (E. coli [5]; erythromycin combined with peptide at 32 μg/ml)
